According to US20210353621A1 (priority 2020, published 2021):
Read-outs that look alike come from different tables or passages of the source.

Tests used:
[1] = Exploratory non-GLP assay of rosuvastatin in retained patient plasma samples; format: in vivo, human; conditions: 2 patients taking rosuvastatin concurrently with Compound (I-g)
Source text: An exploratory, non-GLP method was developed to analyze for rosuvastatin and its major metabolite N-desmethyl rosuvastatin in retained pharmacokinetic plasma samples from the 2 patients.

[2] = Phase I dose escalation safety in mCRPC patients
Source text: (§1) A traditional 3+3 dose escalation design was implemented. […] Dose increases were dependent upon toxicities.

[3] = Preclinical pharmacokinetics, oral once daily (Table 1); conditions: total drug concentrations
OATP1B3 = OATP1B3 (Homo sapiens, UniProt Q9NPD5); test: In vitro transporter inhibition, OATP1B3
Sequence of OATP1B3 (Q9NPD5 whole entry): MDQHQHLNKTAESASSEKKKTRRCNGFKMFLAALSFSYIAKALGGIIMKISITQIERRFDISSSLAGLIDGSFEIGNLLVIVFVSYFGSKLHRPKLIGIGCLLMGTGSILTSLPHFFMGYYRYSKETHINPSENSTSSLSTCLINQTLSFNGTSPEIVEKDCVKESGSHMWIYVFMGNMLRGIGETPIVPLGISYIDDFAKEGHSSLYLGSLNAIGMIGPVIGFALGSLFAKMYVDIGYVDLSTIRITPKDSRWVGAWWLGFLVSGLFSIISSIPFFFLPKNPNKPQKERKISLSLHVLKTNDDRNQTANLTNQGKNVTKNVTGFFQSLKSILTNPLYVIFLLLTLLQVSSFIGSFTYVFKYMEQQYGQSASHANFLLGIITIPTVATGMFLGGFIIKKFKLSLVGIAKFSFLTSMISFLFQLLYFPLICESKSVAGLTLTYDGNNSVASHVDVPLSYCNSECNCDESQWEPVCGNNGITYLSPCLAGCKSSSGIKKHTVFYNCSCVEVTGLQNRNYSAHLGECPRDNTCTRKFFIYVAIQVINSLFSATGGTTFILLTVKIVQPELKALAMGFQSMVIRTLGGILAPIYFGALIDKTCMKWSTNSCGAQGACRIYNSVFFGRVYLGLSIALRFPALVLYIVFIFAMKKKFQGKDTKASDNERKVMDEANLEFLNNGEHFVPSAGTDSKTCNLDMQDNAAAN

BCRP = molecular target: T1, BCRP (Homo sapiens, UniProt Q9UNQ0); test: In vitro transporter inhibition, BCRP
T1 sequence (Q9UNQ0 1-655): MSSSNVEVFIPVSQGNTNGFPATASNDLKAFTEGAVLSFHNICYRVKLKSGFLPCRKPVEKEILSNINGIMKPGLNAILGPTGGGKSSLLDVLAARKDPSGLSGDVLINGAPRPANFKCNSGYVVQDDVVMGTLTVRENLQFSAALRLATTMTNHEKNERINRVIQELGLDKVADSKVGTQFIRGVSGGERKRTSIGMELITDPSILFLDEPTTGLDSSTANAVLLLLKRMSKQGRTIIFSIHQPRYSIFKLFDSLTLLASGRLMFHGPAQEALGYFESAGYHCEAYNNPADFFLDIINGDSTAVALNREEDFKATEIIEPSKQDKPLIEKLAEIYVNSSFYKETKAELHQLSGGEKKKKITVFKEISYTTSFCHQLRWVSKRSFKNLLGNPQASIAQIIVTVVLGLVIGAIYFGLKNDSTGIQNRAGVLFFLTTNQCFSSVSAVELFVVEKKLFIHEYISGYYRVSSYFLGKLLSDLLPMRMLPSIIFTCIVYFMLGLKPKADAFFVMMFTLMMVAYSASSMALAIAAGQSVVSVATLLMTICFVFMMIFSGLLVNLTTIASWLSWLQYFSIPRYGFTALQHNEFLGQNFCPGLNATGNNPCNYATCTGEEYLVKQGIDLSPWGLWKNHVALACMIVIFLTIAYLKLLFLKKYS

[4] = tested on: enzalutamide resistant VCaP xenograft; test: Enzalutamide-resistant VCaP xenograft model; format: in vivo
in vivo = conditions: dog, po
[5] = Phase I clinical trial pharmacokinetics; conditions: male, human, in vivo, po, once daily
Source text: as §1

OATP1B1 = OATP1B1 (Homo sapiens, UniProt Q9Y6L6); test: In vitro transporter inhibition, OATP1B1
Sequence of OATP1B1 (Q9Y6L6 whole entry): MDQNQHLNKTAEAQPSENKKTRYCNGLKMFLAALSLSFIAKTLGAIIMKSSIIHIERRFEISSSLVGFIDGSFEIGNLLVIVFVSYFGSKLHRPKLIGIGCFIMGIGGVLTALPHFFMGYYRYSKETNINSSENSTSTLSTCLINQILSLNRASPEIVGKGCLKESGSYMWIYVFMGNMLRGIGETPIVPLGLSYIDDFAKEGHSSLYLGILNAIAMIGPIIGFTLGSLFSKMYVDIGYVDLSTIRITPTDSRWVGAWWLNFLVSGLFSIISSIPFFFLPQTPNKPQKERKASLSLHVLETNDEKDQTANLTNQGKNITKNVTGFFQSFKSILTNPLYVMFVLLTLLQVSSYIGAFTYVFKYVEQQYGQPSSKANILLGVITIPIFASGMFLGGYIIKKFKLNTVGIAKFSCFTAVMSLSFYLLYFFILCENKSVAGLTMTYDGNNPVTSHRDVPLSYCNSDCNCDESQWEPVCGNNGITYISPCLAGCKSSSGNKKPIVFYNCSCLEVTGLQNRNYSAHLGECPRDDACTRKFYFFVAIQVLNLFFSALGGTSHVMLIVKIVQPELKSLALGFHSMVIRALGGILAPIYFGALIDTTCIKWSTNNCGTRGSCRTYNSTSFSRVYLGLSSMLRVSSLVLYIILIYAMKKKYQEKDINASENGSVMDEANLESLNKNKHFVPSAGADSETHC

[6] = 28-day GLP toxicology study in rats
[7] = 280 mg QD patient with rosuvastatin 20 mg QD, level before decrease
[8] = same patient, within 14 days after Compound (I-g) and rosuvastatin were discontinued
[9] = 3 and 10 μM, preliminary study, solubility limitation

## CC(C)c1nc(N(C)S(C)(=O)=O)nc(-c2ccc(F)cc2)c1/C=C/[C@@H](O)C[C@@H](O)CC(=O)O [Rosuvastatin, rosuvastatin]
[1]
  rosuvastatin plasma concentrations: increased concurrently with the increase in AST/ALT levels in both patients

## N#Cc1ccc(O[C@H]2CC[C@H](NC(=O)c3ccc(N4CCC(CN5CCN(c6cc7c(cc6F)C(=O)N(C6CCC(=O)NC6=O)C7=O)CC5)CC4)nn3)CC2)cc1Cl (stereo partly shown) [Compound (I-g)]
[2]; 35 mg/day cohort
  adverse events: no adverse events at grades 2, 3 or 4 were observed
  dose limiting toxicity: no dose limiting toxicity was observed
[2]; 70 mg QD following discontinuation of rosuvastatin
  AST/ALT elevation on second re-challenge: no other AST/ALT elevation has been observed for 90 days
[2]; 70 mg QD while continuing rosuvastatin
  AST/ALT elevation on re-challenge: second instance of Grade 3 AST/ALT elevation
[2]; 70 mg/day cohort
  adverse events: no adverse events at grades 2, 3 or 4 have been observed, with the exception of grade 3 anemia that was unrelated to the administration of compound (I-g)
  dose limiting toxicity: no dose limiting toxicity has been observed
[2]; 140 mg/day cohort
  adverse events: no adverse events at grades 2, 3 or 4 have been observed
  dose limiting toxicity: no dose limiting toxicity has been observed
[2]; 280 mg QD cohort (3 patients), patient taking rosuvastatin 20 mg QD
  dose limiting toxicity: one patient experienced dose limiting toxicity (DLT) of Grade 4 AST/ALT elevation followed by Grade 4 acute renal failure
[2]; [7]
  ALT level: 4116 U/L
  AST level: 4901 U/L
[2]; 18 patients, 35 mg to 280 mg QD
  overall tolerability: well tolerated
[2]; after dose interruption, 140 mg QD patient with rosuvastatin 40 mg QD
  time to resolution of Grade 3 AST/ALT elevation to Grade 1: ≤ 5 days
[2]; [8]
  ALT level: 83 U/L
  AST level: 280 U/L
[3]; 1 mg/kg oral
  Mean AUC0-24: 3628 ng·h/mL
  Mean Cmax: 224 ng/mL
[3]; 3 mg/kg oral
  Mean AUC0-24: 8106 ng·h/mL
  Mean Cmax: 507 ng/mL
OATP1B3
  IC50: > 10 µM
OATP1B3; [9]
  inhibition of OATP1B3: no inhibition
dogs
  histopathology correlated with AST/ALT elevations: No correlated histopathology changes were observed
dogs, 3, 10 or 30 mg/kg oral once daily
  gastrointestinal alterations: observed at all dose levels (including vehicle alone)
dogs, 10 or 30 mg/kg/day, study days 14 and 29
  AST and ALT: reversible elevations of AST and ALT
dogs, 28-day GLP study
  renal impairment: No evidence of renal impairment was observed
Male dogs
  prostate weights: decreased prostate weights
BCRP
  IC50: > 10 µM
BCRP; [9]
  inhibition of BCRP: no inhibition
[4]; 3 mg/kg oral once daily, compared to a control group
  tumor growth inhibition: 70%
[4]; 10 mg/kg and 3 mg/kg oral, once daily, FIG. 6
  AR in enzalutamide-resistant VCaP tumors (Western blot): reduction of AR
[4]; oral, once daily, enzalutamide-resistant VCaP model
  lowest efficacious dose: 3 mg/kg
In vivo
  MTD at 28 days: < 30 mg/kg
[5]; 35 mg, Mean Day 1 AUC0-24, 35 mg oral
  AUC(0-t): 160 ng·h/mL
[5]; 35 mg, Mean Day 1 Cmax, 35 mg oral
  Cmax: 11.1 ng/mL
[5]; 35 mg, Mean Day 15 AUC0-24, 35 mg oral, imputed 24 hours values
  AUC(0-t): 1700 ng·h/mL
[5]; 35 mg, Mean Day 15 Cmax, 35 mg oral
  Cmax: 83 ng/mL
[5]; 70 mg, Mean Day 1 AUC0-24, 70 mg oral
  AUC(0-t): 300 ng·h/mL
[5]; 70 mg, Mean Day 1 Cmax, 70 mg oral
  Cmax: 19.6 ng/mL
[5]; 70 mg, Mean Day 15 AUC0-24, 70 mg oral, imputed 24 hours values
  AUC(0-t): 2540 ng·h/mL
[5]; 70 mg, Mean Day 15 Cmax, 70 mg oral
  Cmax: 141 ng/mL
[5]; 140 mg, Mean Day 1 AUC0-24, 140 mg oral
  AUC(0-t): 865 ng·h/mL
[5]; 140 mg, Mean Day 1 Cmax, 140 mg oral
  Cmax: 54 ng/mL
[5]; 140 mg, Mean Day 15 AUC0-24, 140 mg oral, imputed 24 hours values
  AUC(0-t): 5020 ng·h/mL
[5]; 140 mg, Mean Day 15 Cmax, 140 mg oral
  Cmax: 353 ng/mL
OATP1B1
  IC50: > 10 µM
OATP1B1; [9]
  inhibition of OATP1B1: no inhibition
[6]; 80 mg/kg female rat cohort
  body weight and food consumption: lost body weight and consumed less food
[6]; male high-dose rats, 14-day recovery
  reversibility of findings in male high-dose rats: fully reversible (liver hypertrophy, femur physis thickening)
[6]; male rats
  prostate weights: decreased prostate weights
[6]; rats, 28-day GLP study
  renal impairment: No evidence of renal impairment was observed
[6]; rats, oral once daily, 28 days, males 20, 60, 120 mg/kg, females 20, 40, 120 mg/kg
  tolerability: well tolerated at all doses, with the exception of the 80 mg/kg female cohort
